Values joined by “and” are separate entries in the source; they are usually repeats but may differ in a detail not shown here. Equal entries are not always repeated.
Target: T1, Histidine--tRNA ligase (Leishmania infantum, UniProt A4I591)
T1 sequence (A4I591 whole entry): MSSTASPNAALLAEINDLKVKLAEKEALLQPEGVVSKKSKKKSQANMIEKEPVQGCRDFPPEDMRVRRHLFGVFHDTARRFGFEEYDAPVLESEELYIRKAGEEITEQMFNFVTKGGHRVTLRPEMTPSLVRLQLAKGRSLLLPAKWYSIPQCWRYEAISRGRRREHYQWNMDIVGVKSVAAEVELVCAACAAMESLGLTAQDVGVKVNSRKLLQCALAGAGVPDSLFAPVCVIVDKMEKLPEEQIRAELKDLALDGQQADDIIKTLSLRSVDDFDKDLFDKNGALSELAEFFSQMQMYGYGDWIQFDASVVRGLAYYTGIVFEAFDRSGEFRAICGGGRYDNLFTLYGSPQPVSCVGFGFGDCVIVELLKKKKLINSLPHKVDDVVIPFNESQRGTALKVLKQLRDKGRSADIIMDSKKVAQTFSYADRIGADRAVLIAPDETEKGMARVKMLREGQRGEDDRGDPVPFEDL
Assay: Leishmania infantum Histidine tRNA synthetase (LdHisRS)
Assay type: functional

Compound | IC50
O=c1c2ccccc2nc2n1C(CSc1ccc(Br)cc1)CN2 (stereo unspecified) | > 100 µM
Cc1c(CN2CCCCC2)c(O)n(CCO)c(=O)c1C#N | 34.4 µM and 35.9 µM
O=C1CC(c2ccc(C(=O)O)cc2)c2ncn(-c3ccccc3)c2N1 (stereo unspecified) | 17.3 µM and 20.1 µM
Cc1cc2nc(SCC(=O)N3CCCC3)n(-c3ccccc3)c(=O)c2[nH]1 | 80.7 µM and > 100 µM
O=C(CCn1ccc2cc(Br)ccc21)NCc1ccc(C(=O)O)cc1 | > 100 µM and 66.9 µM
O=C(c1ccc2[nH]ccc2c1)N1CCn2cnc(COCC3CC3)c2C1 | 38.4 µM and 25.7 µM
Cc1c(CN2CCOCC2)c(O)n(CCc2ccccc2)c(=O)c1C#N | 23.3 µM and 19.8 µM
CNc1[nH]nc(N)c1NC(=O)c1ccccc1 | 12.7 µM and 14.3 µM
Cc1ccc(CN2C(=O)CCC2C(=O)Nc2cnn(C)c2)o1 (stereo unspecified) | > 100 µM and 90.1 µM
COCCN1CCCC(C)(c2cc(O)[nH]n2)C1 (stereo unspecified) | > 100 µM
COCCN1CCC(C)(c2cc(O)[nH]n2)CC1 | 71.4 µM and 66.4 µM
CS(=O)(=O)N1CCCC(Cc2ccnc3ccncc23)CC1 (stereo unspecified) | 21.6 µM and 22.8 µM
CN(C)C(=O)CN1CCCC1c1cccc(Cc2ccccc2F)n1 (stereo unspecified) | 61.1 µM and 51.2 µM
Cc1nccn1-c1cccc(C2CCCN(C3CCCC3)C2)n1 (stereo unspecified) | 32.3 µM and 35.9 µM
c1cc2nccc(CC3CCCN(Cc4ncc[nH]4)CC3)c2cn1 (stereo unspecified) | > 100 µM
Cc1cc(C(=O)NCC(F)(F)F)c2c(C3CCCN3)noc2n1 (stereo unspecified) | 38.4 µM and 70 µM
Cc1nnc2n1CCN(C(=O)c1ccc(Cn3cccc3)cc1)C2 | 51.2 µM and 44 µM
CCCn1nc2c(cc1=O)CN(CC1CCCCO1)CC2 (stereo unspecified) | 33.8 µM and 42.3 µM
CC(=O)N1CCN(c2ccccc2CNc2ccc3[nH]ncc3c2)CC1 | > 100 µM and 76.7 µM
CC(C)C(C)NC(=O)Nc1cccn(C)c1=O (stereo unspecified) | 65.4 µM and 53.4 µM
Cc1nnc(NCCc2coc(-c3ccc(F)cc3)n2)c(C#N)c1C | > 100 µM and 55.9 µM
Cc1nnc(NCCc2coc(-c3ccccc3)n2)c(C#N)c1C | 74.7 µM and 55.7 µM
O=C(CCNCc1cccc(O)c1)N1CCc2sccc2C1 | 17.7 µM and 23 µM
COc1ccc(C(C)=O)cc1CN1CCn2cccc2C1C (stereo unspecified) | 31.8 µM and 50.6 µM

Compound | IC50
CN(CCOc1ccccc1)C(=O)Nc1cccn(C)c1=O | 15 µM and 15.4 µM
Cc1ccn(C)c(=O)c1NC(=O)N(C)Cc1cccc(OC(C)C)c1 | 18.1 µM and 21.6 µM
CCC(C#N)NC(=O)CCCOc1cccc(C(C)=O)c1 (stereo unspecified) | > 100 µM
Cn1cccc(NC(=O)NCCc2cccc(O)c2)c1=O | 15.5 µM and 13 µM
Cn1cccc(NC(=O)NCc2cccc(CO)c2)c1=O | > 100 µM
Cc1cn2nc(N(C)C3CCCN(c4cccnn4)C3)sc2n1 (stereo unspecified) | 29.6 µM and 43.5 µM
Cn1nc2c(cc1=O)CN(c1nc3ccccc3s1)CC2 | 72.4 µM and 80.9 µM
CCn1nc2c(cc1=O)CN(c1nc3ccccc3s1)CC2 | 62.6 µM and 73.7 µM
NC(=O)CN1CCN(CC2CC2)c2ccccc21 | > 100 µM
NC(=O)NC(=O)CCN1CCN(CC2CC2)c2ccccc21 | > 100 µM
Cc1nnc(NCC(c2ccco2)N(C)C)c(C#N)c1C (stereo unspecified) | 24.8 µM and 24.1 µM
Cn1cc(NC(=O)N2CCN(Cc3cscn3)CC2)ccc1=O | 8.51 µM and 8.59 µM
CCCn1nc2c(cc1=O)CN(Cc1ccccn1)CC2 | 20.9 µM and 17.8 µM
CCCn1nc2c(cc1=O)CN(Cc1cc(C)no1)CC2 | 24.8 µM and 27.4 µM
CC(C)c1cc(NC(=O)CN2CCc3nn(C)c(=O)cc3C2)on1 | > 100 µM
Cc1cc(NC(=O)CN2CCc3nn(C)c(=O)cc3C2)no1 | > 100 µM
Cn1nc2c(cc1=O)CN(CC(=O)Nc1cc(C(C)(C)C)no1)CC2 | > 100 µM
NC(=O)c1ccc(N2CCCCC2)c(NC(=O)c2cc(Br)ccc2Cl)c1 | 30.2 µM and 29.7 µM
Cc1noc(C(C)Nc2ccc(N3CCOCC3)cc2C)n1 (stereo unspecified) | > 100 µM
CCC(=O)Nc1cc(Br)cn(C)c1=O | 7.66 µM and 7.91 µM
O=C(Nc1cccn(Cc2ccccc2)c1=O)c1ccncc1F | 35.7 µM and 31.2 µM
NC(=O)CCS(=O)(=O)Cc1ccc(OCC(F)(F)F)cc1 | > 100 µM and 68.4 µM
O=C(NC1CCCN(c2ccc(OC(F)F)cc2)C1)c1ccon1 (stereo unspecified) | > 100 µM
Cc1cc(C(=O)Nc2cccn(Cc3ccc(F)cc3)c2=O)on1 | 12.9 µM and 11.3 µM

Compound | IC50
COc1ccc(NC(=O)C2CCCO2)cc1OCc1cccnc1 (stereo unspecified) | > 100 µM and 72.6 µM
NC(=O)C1=NC2=NS(=O)(=O)c3ccccc3N2N1Cc1ccc(Br)cc1 | 41 µM and 69.9 µM
Cc1noc(C)c1CNc1ccc2nc(C3CC3)sc2c1 | > 100 µM
Cc1cc(CNc2ccc3nc(C)sc3c2)no1 | > 100 µM
COc1ccccc1C1(CNCc2ccc(C#N)cc2)CCOCC1 | 50.4 µM and 50.9 µM
CC(C)c1ccc(C(=O)O)cc1S(=O)(=O)Nc1ccc(=O)n(C)c1 | 12.5 µM and 14.9 µM
Cc1ccsc1C(=O)Nc1cc(Br)c(=O)n(C)c1 | 30.3 µM and 25.3 µM
Cn1cnnc1C1CCCN(C(=O)c2cc(C3CC3)on2)C1 (stereo unspecified) | > 100 µM
CCCn1cc(NC(=O)c2cccc3cccnc23)ccc1=O | 40.1 µM and 37.9 µM
O=C(Nc1ccc(=O)n(Cc2ccccc2Cl)c1)C1CC1 | 6.94 µM and 5.93 µM
O=C1NCC(C(=O)Nc2ccc(=O)n(Cc3ccccc3Cl)c2)N1 (stereo unspecified) | 12.7 µM and 15.3 µM
Cc1cc(O)ncc1NS(=O)(=O)c1cccc(F)c1F | 45.7 µM and 49.5 µM
O=C1CCC(C(=O)Nc2ccc(=O)n(Cc3ccc(Cl)c(Cl)c3)c2)N1 (stereo unspecified) | 10.1 µM and 9.92 µM
Cn1cc(NC(=O)Nc2cccc3cccnc23)ccc1=O | 2.58 µM and 4.22 µM
COc1ccc(C(NCc2cccc(O)c2)C2CC2)cc1 (stereo unspecified) | 26.9 µM and 20.1 µM
Cc1cc(C)cc(OCCC(=O)NC2CC(=O)N(C)C2)c1 (stereo unspecified) | > 100 µM
CC(=O)N1CCN(C(=O)CNc2ccc3ncsc3c2)CC1 | 6.78 µM and 9.49 µM
CN(C(=O)CN1CCc2nn(C)c(=O)cc2C1)c1nccs1 | 95.3 µM and > 100 µM
CS(=O)(=O)CCOCCNc1cncc(Br)c1 | > 100 µM
NCc1ccnc(Oc2ccccc2)c1 | 39.2 µM and 30.9 µM
Cc1noc(C)c1CNc1c(N2CCCC2)cccc1N1CCCC1 | > 100 µM
Cn1cccc(NC(=O)N2CCC(CSc3ccccc3)C2)c1=O (stereo unspecified) | 15.1 µM and 14.9 µM
Cn1cc(NC(=O)Nc2ccccn2)cc(Cl)c1=O | 13.6 µM and 14.1 µM
CCCn1nc2c(cc1=O)CN(Cc1cc(C)on1)CC2 | 80.7 µM and 80.3 µM

Compound | IC50
CCCn1nc2c(cc1=O)CN(Cc1nc(CCOC)no1)CC2 | 57.7 µM and 67.2 µM
CN(C)CCn1c(=O)oc2ccc(NC(=O)C3CCCO3)cc21 (stereo unspecified) | > 100 µM
COc1cccc(CN(C)C(=O)CN2CC(n3nc(C)cc3C)C2)c1 | 37.2 µM and 43.7 µM
O=C(NCC1CC1)c1cc2c(s1)CCN2c1ncccn1 | 63 µM and 54 µM
CCn1nnc2c1C(COC)CN(Cc1ccco1)C2 (stereo unspecified) | > 100 µM
Cn1nccc1-c1ncc(-c2cc(C(=O)O)n(CC3CC3)c2)cn1 | > 100 µM
CN(C)CCN1CCO[C@@H]2CCN(C(=O)c3cccn3C)CC[C@H]21 | > 100 µM
CC(=O)N1CCO[C@@H]2CN(S(=O)(=O)c3ccc(C)cc3)CC[C@@H]2C1 | > 100 µM
C[C@H](NS(C)(=O)=O)C(=O)NCc1cc(-c2ccco2)n[nH]1 | > 100 µM
CC(C)[C@H](NS(C)(=O)=O)C(=O)NCc1cc(-c2ccco2)n[nH]1 | 87.9 µM and 82 µM
CN1C(=O)[C@H]2CC[C@@H]1CN(C(=O)Nc1cccc3ccccc13)C2 | 55.3 µM and 43.3 µM
O=C(CCc1n[nH]c2c1CCCC2)N1C[C@@H]2CC[C@H](C1)N(CC1CC1)C2 | 44.9 µM and 35.8 µM
FC(F)(F)c1ccc(-c2cc(NC3CCNCC3)nc3[nH]ccc23)nc1 | 29.3 µM and 30.2 µM
CC(C)c1nnc(N2C[C@@H]3CC[C@H](C2)N(Cc2ccccc2)C3)s1 | 35.5 µM and 34.5 µM
CC(=O)Nc1ccc2nc(-c3nccn3C[C@@H]3CCCO3)ccc2c1 | > 100 µM and 85.4 µM
Cn1ccnc1-c1cn(CCc2nnc(N)s2)nn1 | > 100 µM
COc1cccc(N2CCN(Cc3cccc(CCN)c3)CC2=O)c1 | 23.3 µM and 28.2 µM
CN1CCN(Cc2nnc(C3CCN(C(CO)CO)CC3)n2C)CC1 | 16 µM and 15.8 µM
O=C1CN(C(=O)c2cc(-c3ccco3)nc3c(Cl)cccc23)CCN1 | 18.6 µM and 19.5 µM
COc1ccc(CCN)cc1-c1ccc(C(N)=O)cc1 | 48.8 µM and 28 µM
Clc1cc(NCc2ccncc2)nc2[nH]ccc12 | 18.7 µM and 17.4 µM
CC(C)c1cc(N2CCC(C(C)N3CCCC3)CC2)n2nccc2n1 (stereo unspecified) | 34.3 µM and 31.4 µM
CN(C)[C@@H]1C[C@@H](CO)N(C(=O)Nc2ccc(SC(F)(F)F)cc2)C1 | > 100 µM
Cn1ccnc1-c1cn(CCCc2csc(N)n2)nn1 | > 100 µM

Compound | IC50
O=C(c1cc(-c2ccco2)nc2c(Cl)cccc12)N1C[C@H]2CNC[C@H]2C1 | 48.1 µM and 51.8 µM
CCc1cc(N2CCC(F)(F)CC2)n2nc(C)c(C)c2n1 | > 100 µM
COc1cccn(CC(=O)N(C)CCCOc2c(C)cccc2C)c1=O | > 100 µM
Cc1cccc2c1nc(COCC(=O)O)n2-c1cnc(N)cn1 | > 100 µM
c1cncc(NCCNC2CCSC2)c1 (stereo unspecified) | 31.9 µM and 23 µM
NCCc1cccc(CN2CCN(c3ccccc3)C(=O)C2)c1 | 26.8 µM and 20.5 µM
CN1CCN(c2cccc(NC(=O)NCc3csc(N(C)C)n3)c2)C1=O | 38.9 µM and 48.5 µM
CC(Nc1nc(-c2ccncc2)nc2c1CCNC2)c1ccccc1 (stereo unspecified) | 43.4 µM and 46.8 µM
COc1ccc(C(=O)N2CCN(c3cc(CCN)nc(C)n3)CC2)cc1 | 49.3 µM and 51.2 µM
O=C(CCN1CCCC1)N1CC[C@@H](c2ccc3ccccc3c2)[C@H](O)C1 | 63.5 µM and 54.7 µM
c1cncc(NCCNC2CSCCSC2)c1 | 28.7 µM and 19.6 µM
CN(Cc1ccccc1CN1CCCC1)c1ncnc2[nH]ccc12 | 44.8 µM and 48.7 µM
Cc1c(C(=O)N2CCC(O)(CN(C)C)C2)c2cc(O)ccc2n1C (stereo unspecified) | > 100 µM
CCOc1ccc2nc(CN3CCC(CN)C3)ccc2c1 (stereo unspecified) | 33.2 µM and 46.9 µM
O=C(c1cc(=O)n(-c2ccccc2)[nH]1)N1CCCC(c2ccn[nH]2)C1 (stereo unspecified) | 49.3 µM and 44.5 µM
CC(=O)Cc1c(C)nn(-c2cncc(N)c2)c1C | 33.4 µM and 30.1 µM
c1cncc(-c2ccc3c(c2)C2(CC3)CCN(c3nncs3)CC2)c1 | 32.5 µM and 45.4 µM
CCn1nnc2c1C(COCC(=O)N(C)C)CN(Cc1ccco1)C2 (stereo unspecified) | > 100 µM
CCS(=O)(=O)Nc1ccc2c(c1)C1(CCOCC1)CN2C | 13.4 µM and 11 µM
CCN1CC2(CCOCC2)c2cc(NS(=O)(=O)CC)ccc21 | 8.64 µM and 21.4 µM
